“Also recorded” adds a separate entry of the source. Like-named read-outs stand apart in the source and are kept apart here.
What was measured:
[1] = ref [10]–[13], cited from earlier work
[2] = Safety: treatment-emergent adverse events (NCI CTCAE v4.03), safety population; assay type: in vivo, human; settings: N=20
Procedure: Safety was assessed by incidence and severity of treatment-emergent adverse events (TEAEs), vital signs, physical examinations, electrocardiograms, and clinical laboratory tests, and toxicities were graded according to the National Cancer Institute Common Terminology Criteria for Adverse Events (NCI CTCAE), version 4.03.
(§1) Pevonedistat PK was assessed in all patients who received the protocol-specified pevonedistat and rifampin doses in Part A, and had sufficient concentration–time data to permit reliable estimation of PK parameters (PK-evaluable population). PK data were summarized using descriptive statistics. For assessment of the effect of rifampin on pevonedistat PK, the ratios of geometric mean Cmax, AUClast and AUCinf of pevonedistat in the presence of rifampin on Day 10 versus in the absence of rifampin on Day 1 and associated 90% CI were calculated based on analysis of variance. Estimates for each PK parameter were obtained using a mixed effects model of log(PK parameter) with fixed terms for the rifampin effect and random terms for patient. Safety was assessed in all patients who received at least one dose of pevonedistat, and TEAEs were coded according to the Medical Dictionary for Regulatory Activities (MedDRA), version 20.0.

[3] = design: method as in PMID 30845347; settings: strong CYP3A/P-glycoprotein inhibitor itraconazole; ref [16]; cited from earlier work
[4] = design: method as in PMID 33089874; settings: following intravenous administration; ref [14]; cited from earlier work
[5] = Phase 1 drug-drug interaction study: single-dose pevonedistat plasma PK in the absence or presence of rifampin; assay type: in vivo, human; settings: for AUC(0-t) / AUC(0-inf) / Cmax / clearance / Vd / half-life: human, plasma; for clearance: 50 mg/m2, plasma clearance, read-out: CL geometric mean (CV) (converted); for Vd: read-out: Vss geometric mean (CV); for half-life: read-out: t1/2z mean (SD) (converted)
Procedure: This was an open-label, multi-center study in adult patients with advanced solid tumors (NCT03486314). Eligible patients received a single 50 mg/m^2 pevonedistat dose via a 1-h infusion on Days 1 and 10, and daily oral dosing of rifampin 600 mg Days 3–11. Serial blood samples for the measurement of pevonedistat plasma concentrations were collected over 48 h following pevonedistat dosing. Pevonedistat PK parameters and ratios of geometric means for maximal plasma concentration (Cmax) and area under the plasma concentration versus time curve from time 0 to infinity (AUC0–inf) were calculated in the presence of rifampin (Day 10) and in reference to the absence of rifampin (Day 1), with associated 90% confidence intervals (CI) estimated using analysis of variance.
Serial blood samples for measuring pevonedistat concentrations were collected at intervals from 0 (predose) to 48 h after the single doses of pevonedistat on Day 1 and Day 10. Plasma samples were analyzed for pevonedistat concentrations using a previously reported validated liquid chromatography/mass spectrometry (LC–MS/MS) assay.
Pevonedistat PK parameters were calculated by noncompartmental analysis of the pevonedistat plasma concentration–time data using Phoenix WinNonlin version 8.1 (Certara, Princeton, NJ). The following single-dose PK parameters were derived: Cmax, AUC0-inf, AUC from time 0 to the last quantifiable concentration (AUC0–last), terminal disposition phase half-life (t1/2), clearance (CL), and volume of distribution at steady state (Vss).
as §1

[6] = design: method as in PMID 31355467; settings: ref [15], cited from earlier work
[7] = most common TEAEs (≥ 15% of patients)
[8] = single dose 50 mg/m^2 ± rifampin
[9] = single dose 50 mg/m^2 ± rifampin, listed as Pevonedistat
[10] = iv, 50 mg/m2, single 50 mg/m^2 IV, in the absence of rifampin (Day 1), N=20
[11] = iv, 50 mg/m2, single 50 mg/m^2 IV, in the presence of rifampin (Day 10), N=17
[12] = presence of rifampin (Day 10) vs absence (Day 1)

NS(=O)(=O)OC[C@@H]1C[C@@H](n2ccc3c(N[C@H]4CCc5ccccc54)ncnc32)C[C@@H]1O [pevonedistat, Pevonedistat]
recommended dose for clinical investigation as a single agent ([1]; Days 1, 3 and 5 in 21-day cycles): 50 mg/m^2
maximum tolerated dose (MTD) ([1]; in combination with azacitidine): 20 mg/m^2
maximum tolerated dose (MTD) ([1]; in combination with carboplatin plus paclitaxel): 20 mg/m^2
maximum tolerated dose (MTD) ([1]; in combination with docetaxel): 25 mg/m^2
TEAE of hypersensitivity leading to interruption of study drug or permanent withdrawal, patients [2]: Two
TEAE decreased appetite, patients [2, 7]: 4 [20%] n [%]
TEAE diarrhea, patients [2, 7]: 3 [15%] n [%]
TEAE fatigue, patients [2, 7]: 3 [15%] n [%]
Drug-related TEAEs, Events [2, 8]: 14
Grade ≥ 3 TEAEs, Events [2, 8]: 17
Grade ≥ 3 drug related TEAEs, Events [2, 8]: 3
Grade ≥ 3 drug related TEAEs, Patients (%) [2, 8]: 3 (15%) n (%)
On-study deaths, Events [2, 8]: 1
Serious TEAEs leading to study drug discontinuation, Events [2, 8]: 1
Serious TEAEs leading to study drug discontinuation, Patients (%) [2, 8]: 1 (5.0) n (%)
Serious TEAEs, Events [2, 8]: 4
Serious TEAEs, Patients (%) [2, 8]: 3 (15%) n (%)
Serious TEAEs, drug related, Events [2, 8]: 1
Serious TEAEs, drug related, Patients (%) [2, 8]: 1 (5.0) n (%)
TEAEs leading to study drug discontinuation, Events [2, 8]: 1
TEAEs leading to study drug discontinuation, Patients (%) [2, 8]: 1 (5.0) n (%)
TEAEs leading to study drug dose delayed, Events [2, 8]: 0
TEAEs leading to study drug dose delayed, Patients (%) [2, 8]: 0 n (%)
TEAEs leading to study drug dose interruption, Events [2, 8]: 0
TEAEs leading to study drug dose interruption, Patients (%) [2, 8]: 0 n (%)
TEAEs leading to study drug dose reduction, Events [2, 8]: 0
TEAEs leading to study drug dose reduction, Patients (%) [2, 8]: 0 n (%)
TEAEs, Events [2, 8]: 82
TEAEs, Patients (%) [2, 8]: 16 (80%) n (%)
Drug-related TEAEs, Patients (%) [2, 9]: 9 (45.0) n (%)
Grade ≥ 3 TEAEs, Patients (%) [2, 9]: 7 (35.0) n (%)
Grade ≥ 3 drug related TEAEs, Patients (%) [2, 9]: 3 (15.0) n (%)
On-study deaths, Patients (%) [2, 9]: 1 (5.0) n (%)
Serious TEAEs, Patients (%) [2, 9]: 3 (15.0) n (%)
TEAEs, Patients (%) [2, 9]: 16 (80.0) n (%)
effect of itraconazole on pevonedistat systemic exposure / PK [3]: no clinically relevant effects; also recorded: did not result in clinically meaningful increase
whole-blood-to-plasma ratio [4]: 40
geometric mean AUClast in the presence of rifampin as % of that in the absence ([5]; Day 10 vs Day 1, 90% CI 68.4%–90.1%): 78.5%
geometric mean AUC∞ (AUC0–inf) in the presence of rifampin as % of that in the absence ([5]; Day 10 vs Day 1, 90% CI 69.2%–90.2%): 79%
geometric mean Cmax in the presence of rifampin as % of that in the absence ([5]; Day 10 vs Day 1, 90% CI 79.2%–117%): 96.2%
decrease in pevonedistat systemic exposure with rifampin ([5]; coadministration with rifampin): approximately 20%
AUC(0-t) ([5]; intravenous, 50 mg/m^2, mixed-effects model, in the absence of rifampin, N=20, read-out: AUClast LS mean): 2990 ng·h/mL
AUC(0-inf) ([5]; intravenous, 50 mg/m^2, mixed-effects model, in the absence of rifampin, N=20, read-out: AUC∞ LS mean): 3030 ng·h/mL
Cmax ([5]; intravenous, 50 mg/m^2, mixed-effects model, in the absence of rifampin, N=20, read-out: Cmax LS mean): 602 ng/mL
AUC(0-t) ([5]; intravenous, mixed-effects model, in the presence of rifampin, N=17, read-out: AUClast LS mean): 2340 ng·h/mL
AUC(0-inf) ([5]; intravenous, mixed-effects model, in the presence of rifampin, N=17, read-out: AUC∞ LS mean): 2390 ng·h/mL
Cmax ([5]; intravenous, mixed-effects model, in the presence of rifampin, N=17, read-out: Cmax LS mean): 579 ng/mL
clearance ([5]; iv, single 50 mg/m^2 IV, in the absence of rifampin (Day 1), N=20): 550 mL/min
clearance ([5]; iv, single 50 mg/m^2 IV, in the presence of rifampin (Day 10), N=17): 692 mL/min
AUC(0-t) ([5]; iv, 50 mg/m2, single 50 mg/m^2 IV, in the absence of rifampin (Day 1), N=20, read-out: AUClast geometric mean (CV)): 2990 ng·h/mL
AUC(0-inf) ([5]; iv, 50 mg/m2, single 50 mg/m^2 IV, in the absence of rifampin (Day 1), N=20, read-out: AUC∞ geometric mean (CV)): 3030 ng·h/mL
Vd [5, 10]: 278 L
half-life [5, 10]: ~7 h
AUC(0-t) ([5]; iv, 50 mg/m2, single 50 mg/m^2 IV, in the presence of rifampin (Day 10), N=17, read-out: AUClast geometric mean (CV)): 2330 ng·h/mL
AUC(0-inf) ([5]; iv, 50 mg/m2, single 50 mg/m^2 IV, in the presence of rifampin (Day 10), N=17, read-out: AUC∞ geometric mean (CV)): 2370 ng·h/mL
Vd [5, 11]: 265 L
half-life [5, 11]: 5.7 h
Cmax ([5]; single 50 mg/m^2 1-h IV infusion, in the absence of rifampin (Day 1), N=20, read-out: Cmax geometric mean (CV)): 602 ng/mL
Cmax ([5]; single 50 mg/m^2 1-h IV infusion, in the presence of rifampin 600 mg daily (Day 10), N=17, read-out: Cmax geometric mean (CV)): 564 ng/mL
CL geometric mean (CV) ([5]; plasma clearance, single 50 mg/m^2 IV, in the absence of rifampin (Day 1), N=20): 33.1 (31.2%) L/h
AUClast LS mean ratio (90% CI) [5, 12]: 0.785 (0.684–0.901)
AUC∞ LS mean ratio (90% CI) [5, 12]: 0.790 (0.692–0.902)
Cmax LS mean ratio (90% CI) [5, 12]: 0.962 (0.792–1.17)
t1/2z mean (SD) ([5]; single 50 mg/m^2 IV, in the absence of rifampin (Day 1), N=20): 7.4 (1.4) h
PK dose linearity ([6]; dose range 25–278 mg/m^2): linear
impact of age, sex, tumor type, mild or moderate renal impairment (creatinine clearance ≥ 30 mL/min) on PK [6]: no impact
inter-patient variability in pevonedistat clearance [6]: approximately 30%
